# Assay results published in patent publication US10052305B2, “Lipoic acid and derivatives thereof for the treatment of cystinuria” (Buck Institute for Research on Aging, priority 2015, dated 2018).
# What was measured:
# Format in all cases: in vivo
# Slc3a1−/− mice [1] = assay: Effect on cystine urinary stone growth tracked by μCT after switch to a lipoic acid diet; settings: Slc3a1−/− mice on standard diet, switched on day 54 to diet with 0.5% (±)-α-lipoic acid; before vs after treatment
# Text: To evaluate the effect of lipoic acid on cystine urinary stone growth, stone development was tracked by micro-computed tomography (μCT) in Slc3a1^−/− mice fed a standard diet. On day 54 of the study, the mice were switched onto a diet supplemented with 0.5% (±)-α-lipoic acid.
# Slc3a1−/− mice [2] = assay: Prevention of cystine stone formation in a genetic mouse model of cystinuria, evaluated by micro-computed tomography (μCT)
# Text: A genetic mouse model of cystinuria was used to study the formation of cystine urinary stones. Mice lacking the gene Slc3a1 (Slc3a1^−/−) were fed a diet supplemented with 0.5% (±)-α-lipoic acid and evaluated for the formation of cystine stones using micro-computed tomography (μCT). […] On average, mice treated with lipoic acid developed much smaller cystine stones (mm^3). This experiment was repeated again (Experiment 2) with similar results; none (0 out of 6) of the lipoic acid treated cystinuric mice developed stones while all control, non-treated mice (8 out of 8) had developed urinary stones had developed stones by day 27 of the study.
# [3] = Real time food and water intake in metabolic cages; settings: Slc3a1−/− mice; 0.5% (±)-α-lipoic acid diet vs standard diet; 3 days after 3 days of acclimation
# Method: Real time food and water intake was measured in Slc3a1^−/− mice treated with 0.5% (±)-α-lipoic acid supplemented diet by group housing in metabolic cages. Mice were acclimated to the metabolic cage environment for 3 days and then evaluated for food and water intake for the subsequent 3 days.
structure (smiles),measurement,setting,value
"O=C(O)CCCCC1CCSS1 (racemic) [Lipoic acid, (±)-α-lipoic acid]",decrease of the rate of stone volume accumulation (mm^3/day),Slc3a1−/− mice [1],90%
same,mice that developed stones,"Slc3a1−/− mice [2]; Experiment 2 (repeat), by day 27 of the study, non-treated mice 8 out of 8",0 out of 6
same,average cystine stone size vs non-treated mice,"Slc3a1−/− mice [2]; first experiment (FIG. 2), diet supplemented with 0.5% (±)-α-lipoic acid",much smaller
same,mice that developed cystine stones,"Slc3a1−/− mice [2]; first experiment (FIG. 2), diet supplemented with 0.5% (±)-α-lipoic acid, non-treated mice 7/7",2 out of 8
same,"light cycle, dark cycle, or total food intake",[3],did not especially alter
same,"light cycle, dark cycle, or total water intake",[3],did not especially alter
